From the NIST ThermoML archive (doi:10.1021/je200707b)
Numbers after ± are expanded uncertainties.

Assays:
[1] = xn = mol fraction of the nth substance listed; conditions: 101.3 kPa, Liquid; for viscosity: Falling or rolling sphere viscometry; for mass density: Vibrating tube method
[2] = refractive index (Na D-line) (dimensionless); xn = mol fraction of the nth substance listed; conditions: 298.15 K, 101.3 kPa, Liquid, Standard Abbe refractometry

CC(=O)O.CCCCN [butylammonium acetate] + CCO
[1]
Conditions	mass density, 293.15 K [kg/m3]	mass density, 298.15 K [kg/m3]	mass density, 303.15 K [kg/m3]	mass density, 308.15 K [kg/m3]	mass density, 313.15 K [kg/m3]	viscosity, 293.15 K [mPa·s]	viscosity, 298.15 K [mPa·s]	viscosity, 303.15 K [mPa·s]	viscosity, 308.15 K [mPa·s]	viscosity, 313.15 K [mPa·s]
x1 = 0.0319	805.12 ± 0.38	800.93 ± 0.38	796.71 ± 0.38	792.46 ± 0.38	788.16 ± 0.38	1.644 ± 0.045	1.488 ± 0.041	1.349 ± 0.037	1.226 ± 0.034	1.117 ± 0.031
x1 = 0.0608	817.26 ± 0.39	813.17 ± 0.38	809.04 ± 0.38	804.88 ± 0.38	800.68 ± 0.38	2.184 ± 0.06	1.959 ± 0.054	1.764 ± 0.048	1.593 ± 0.044	1.442 ± 0.04
x1 = 0.0999	831.76 ± 0.39	827.77 ± 0.39	823.74 ± 0.38	819.69 ± 0.38	815.6 ± 0.38	3.042 ± 0.084	2.707 ± 0.074	2.42 ± 0.067	2.171 ± 0.06	1.908 ± 0.052
x1 = 0.1977	860.95 ± 0.39	857.19 ± 0.39	853.35 ± 0.39	849.49 ± 0.39	845.68 ± 0.39	6.773 ± 0.19	5.903 ± 0.16	5.176 ± 0.14	4.557 ± 0.12	4.013 ± 0.11
x1 = 0.2965	883.07 ± 0.4	879.43 ± 0.4	875.76 ± 0.4	872.09 ± 0.4	868.39 ± 0.39	13.92 ± 0.38	11.88 ± 0.33	10.23 ± 0.28	8.831 ± 0.24	7.695 ± 0.21
x1 = 0.4008	901.46 ± 0.4	897.94 ± 0.4	894.4 ± 0.4	890.81 ± 0.4	887.18 ± 0.4	26.61 ± 0.73	22.28 ± 0.61	18.84 ± 0.52	16.06 ± 0.44	13.75 ± 0.38
x1 = 0.5005	915.65 ± 0.41	912.21 ± 0.41	908.76 ± 0.41	905.3 ± 0.4	901.83 ± 0.4	49.22 ± 1.4	40.2 ± 1.1	33.21 ± 0.91	27.76 ± 0.76	23.37 ± 0.64
x1 = 0.6454	932.09 ± 0.41	928.75 ± 0.41	925.39 ± 0.41	922.03 ± 0.41	918.66 ± 0.41	113.11 ± 4.1	90.9 ± 2.9	72.83 ± 2.1	59.18 ± 1.6	48.51 ± 1.3
x1 = 0.8019	945.97 ± 0.42	942.74 ± 0.42	939.48 ± 0.41	936.22 ± 0.41	932.94 ± 0.41	264.17 ± 15	201.81 ± 10	156.42 ± 6.9	122.42 ± 4.7	97.36 ± 3.3
x1 = 0.9009	953.34 ± 0.42	950.15 ± 0.42	946.94 ± 0.42	943.74 ± 0.42	940.53 ± 0.41	475.32 ± 36	347.84 ± 23	260.75 ± 15	197.78 ± 9.9	152.81 ± 6.6

[2]
Conditions	refractive index
x1 = 0.0319	1.3681 ± 0.0011
x1 = 0.0608	1.3731 ± 0.0011
x1 = 0.0999	1.3804 ± 0.0011
x1 = 0.1977	1.3965 ± 0.0011
x1 = 0.2965	1.4073 ± 0.0011
x1 = 0.4008	1.4152 ± 0.0011
x1 = 0.5005	1.4219 ± 0.0011
x1 = 0.6454	1.4292 ± 0.0011
x1 = 0.8019	1.436 ± 0.0011
x1 = 0.9009	1.4396 ± 0.0011

CC(=O)O.CCCCN [butylammonium acetate] + CO
[1]
Conditions	mass density, 293.15 K [kg/m3]	mass density, 298.15 K [kg/m3]	mass density, 303.15 K [kg/m3]	mass density, 308.15 K [kg/m3]	mass density, 313.15 K [kg/m3]	viscosity, 293.15 K [mPa·s]	viscosity, 298.15 K [mPa·s]	viscosity, 303.15 K [mPa·s]	viscosity, 308.15 K [mPa·s]	viscosity, 313.15 K [mPa·s]
x1 = 0.0302	814.76 ± 0.4	810.3 ± 0.4	805.81 ± 0.39	801.29 ± 0.39	796.74 ± 0.39	0.883 ± 0.024	0.82 ± 0.023	0.763 ± 0.021	0.712 ± 0.02	0.666 ± 0.018
x1 = 0.0597	832.65 ± 0.4	828.3 ± 0.4	823.98 ± 0.39	819.63 ± 0.39	815.28 ± 0.39	1.237 ± 0.034	1.141 ± 0.031	1.053 ± 0.029	0.975 ± 0.027	0.905 ± 0.025
x1 = 0.1011	852.44 ± 0.39	848.33 ± 0.39	844.2 ± 0.39	840.05 ± 0.39	835.89 ± 0.39	1.933 ± 0.053	1.759 ± 0.048	1.607 ± 0.044	1.474 ± 0.041	1.357 ± 0.037
x1 = 0.1992	884.85 ± 0.4	881.05 ± 0.4	877.23 ± 0.4	873.38 ± 0.4	869.54 ± 0.4	4.825 ± 0.13	4.283 ± 0.12	3.828 ± 0.11	3.437 ± 0.094	3.099 ± 0.085
x1 = 0.301	906.27 ± 0.4	902.66 ± 0.4	899.04 ± 0.4	895.45 ± 0.4	891.77 ± 0.4	11.1 ± 0.3	9.608 ± 0.26	8.354 ± 0.23	7.294 ± 0.2	6.415 ± 0.18
x1 = 0.4023	920.99 ± 0.41	917.52 ± 0.41	914.03 ± 0.41	910.53 ± 0.41	907.04 ± 0.4	23.22 ± 0.64	19.57 ± 0.54	16.66 ± 0.46	14.34 ± 0.39	12.54 ± 0.34
x1 = 0.4995	931.42 ± 0.41	928.03 ± 0.41	924.64 ± 0.41	921.23 ± 0.41	917.83 ± 0.41	44.76 ± 1.2	36.68 ± 1	30.45 ± 0.84	25.59 ± 0.7	21.65 ± 0.59
x1 = 0.6524	943.29 ± 0.42	940 ± 0.41	936.69 ± 0.41	933.39 ± 0.41	930.08 ± 0.41	115.48 ± 4.3	92.51 ± 3	69.01 ± 2	53.46 ± 1.4	47.61 ± 1.3
x1 = 0.7993	951.52 ± 0.42	948.31 ± 0.42	945.07 ± 0.42	941.83 ± 0.41	938.59 ± 0.41	256.45 ± 15	195.97 ± 9.7	151.07 ± 6.5	118.32 ± 4.4	94.24 ± 3.1
x1 = 0.8988	955.88 ± 0.42	952.69 ± 0.42	949.49 ± 0.42	946.3 ± 0.42	943.09 ± 0.42	418.49 ± 30	312.52 ± 19	242.56 ± 13	183.85 ± 8.8	142.67 ± 6

[2]
Conditions	refractive index
x1 = 0.0302	1.3413 ± 0.0004
x1 = 0.0597	1.3526 ± 0.0004
x1 = 0.1011	1.3665 ± 0.0004
x1 = 0.1992	1.3878 ± 0.0004
x1 = 0.301	1.403 ± 0.0004
x1 = 0.4023	1.4144 ± 0.0004
x1 = 0.4995	1.4212 ± 0.0004
x1 = 0.6524	1.4316 ± 0.0004
x1 = 0.7993	1.4365 ± 0.0004
x1 = 0.8988	1.4398 ± 0.0004
